Experimental findings from patent publication US9913857B2, “Composition and methods of screening” (OPTIBIOTIX LIMITED, priority 2013, dated 2018) are described below.

The subject of one experiment is Bifidobacteria. Nature of the experiment: Anaerobic cultures, gut bacterial groups by fluorescent in situ hybridisation: Bifidobacteria. In kind it is cell-based. Set-up: Bifidobacteria 24: unit not given here. The note with it: for Bifidobacteria 24: 24 hours, anaerobic culture, inoculum 6.85; for Bifidobacteria 24 hr % change: 24 hr vs inoculum. As for the experimental part: (§1) In these experiments, anaerobic cultures were tested to evaluate the in vitro utilisation of a novel Lactobacillus reuteri galactooligosaccharide by monitoring the populations of gut bacterial groups at 24 hours using fluorescent in situ hybridisation, and short-chain fatty acid […]. Fructooligosaccharides (FOS), melibiose and raffinose were used as reference carbohydrates.

The subject of a further experiment is Clostridia. Nature of the experiment: Anaerobic cultures, gut bacterial groups by fluorescent in situ hybridisation: Clostridia. In kind it is cell-based. Set-up: Clostridia 24: unit not given here. The settings on record: for Clostridia 24: 24 hours, anaerobic culture, inoculum 7.55; for Clostridia 24 hr % change: 24 hr vs inoculum. As for the experimental part:
as §1

Another experiment deals with Lactobacilli. Nature of the experiment: Anaerobic cultures, gut bacterial groups by fluorescent in situ hybridisation: Lactobacilli. It counts as cell-based. Set-up: Lactobacilli 24: unit not given here. The note with it: for Lactobacilli 24: 24 hours, anaerobic culture, inoculum 7.15; for Lactobacilli 24 hr % change: 24 hr vs inoculum. As for the experimental part: as §1

Another experiment deals with Bacteroides. Nature of the experiment: Anaerobic cultures, gut bacterial groups by fluorescent in situ hybridisation: Bacteroides. In kind it is cell-based. Set-up: Bacteroides 24: unit not given here. The note with it: for Bacteroides 24: 24 hours, anaerobic culture, inoculum 7.98; for Bacteroides 24 hr % change: 24 hr vs inoculum. As for the experimental part:
as §1

Another experiment has as its system Eubacteria. The experiment in a line: Anaerobic cultures, gut bacterial groups by fluorescent in situ hybridisation: Eubacteria. It counts as cell-based. Set-up: Eubacteria 24: unit not given here. The settings on record: for Eubacteria 24: 24 hours, anaerobic culture, inoculum 8.06; for Eubacteria 24 hr % change: 24 hr vs inoculum. As for the experimental part: as §1

In another experiment the test system is Total count. The experiment in a line: Anaerobic cultures, gut bacterial groups by fluorescent in situ hybridisation: total count. The settings on record: for Total count 24: 24 hours, anaerobic culture, inoculum 8.84; for Total count 24 hr % change: 24 hr vs inoculum. In kind it is cell-based. Set-up: Total count 24: unit not given here. As for the experimental part:
as §1

The subject of another experiment is E. coli. Nature of the experiment: Anaerobic cultures, gut bacterial groups by fluorescent in situ hybridisation: E. coli. It counts as cell-based. Set-up: E. coli 24: unit not given here. The note with it: for E. coli 24: 24 hours, anaerobic culture, inoculum 8.14; for E. coli 24 hr % change: 24 hr vs inoculum. As for the experimental part:
as §1

Another experiment deals with Lactobacilli strains. Nature of the experiment: Bacterial growth curve with lactose as growth medium. The note with it: around 13 hours, from approximately 6.5, L. plantarum, L. casei, L. salivarius, L. rhanmosus, L. delbrueckii. It counts as cell-based, Lactobacillus. As for the experimental part: Bacterial growth curve determination was undertaken by sampling cultures at 0 h, 3 h, 5 h, 8 and 24 h intervals using a 100 μL of dilution series of culture in 900 μL PBS. 20 μL of each series was spread onto a jar and with a negative control and growth assessed.
Bacterial count of several of the strains was assessed by using 0.1% lactose as the growth medium.
Bacterial count of several of the strains was assessed by using 5% lactose as the growth medium. FIGS. 2A-2G show the bacterial count over time using 5% lactose as a growth medium for L. plantarum, L. casei, L. salivarius, L. delbrueckii, L. rhanmosus, L. acidophilus and L. helveticus.

On to `OC[C@H]1O[C@H](OCC2O[C@@H](O)[C@H](O)[C@@H](O)[C@@H]2O)[C@H](O)[C@@H](O)[C@H]1O` (stereo partly drawn) [Melibiose, melibiose], for which, in the experiment on Bifidobacteria, the “Bifidobacteria 24” value is listed as 7.33 and the “Bifidobacteria 24 hr % change” value came to 107%. Besides, in the experiment on Clostridia, the “Clostridia 24” value is reported as 7.65 and the “Clostridia 24 hr % change” value is listed as 101%. In the experiment on Lactobacilli, the “Lactobacilli 24” value worked out at 7.43 and the “Lactobacilli 24 hr % change” value is reported as 104%. Further, in the experiment on Bacteroides, the “Bacteroides 24” value stood at 7.9 and the “Bacteroides 24 hr % change” value stood at 99%. Besides, in the experiment on Eubacteria, the “Eubacteria 24” value came out at 7.84 and the “Eubacteria 24 hr % change” value stood at 97%. In the experiment with Total count, the “Total count 24” value is reported as 9.14 and the “Total count 24 hr % change” value is reported as 103%. In the experiment with E. coli, the “E. coli 24” value is 7.66 and the “E. coli 24 hr % change” value is given as 94%.
In the case of `OC[C@H]1O[C@H](OC[C@H]2O[C@H](O[C@]3(CO)O[C@H](CO)[C@@H](O)[C@@H]3O)[C@H](O)[C@@H](O)[C@@H]2O)[C@H](O)[C@@H](O)[C@H]1O` [Raffinose, raffinose], in the experiment on Bifidobacteria, the “Bifidobacteria 24” value is reported as 7.69 and the “Bifidobacteria 24 hr % change” value amounted to 112%. Further, in the experiment with Clostridia, the “Clostridia 24” value turned out to be 7.81 and the “Clostridia 24 hr % change” value was determined as 103%. Further, in the experiment on Lactobacilli, the “Lactobacilli 24” value is 7.45 and the “Lactobacilli 24 hr % change” value came out at 104%. In the experiment with Bacteroides, the “Bacteroides 24” value is reported as 8.08 and the “Bacteroides 24 hr % change” value is on record as 101%. Also, in the experiment on Eubacteria, the “Eubacteria 24” value is on record as 8.69 and the “Eubacteria 24 hr % change” value worked out at 108%. In the experiment on Total count, the “Total count 24” value stood at 9.19 and the “Total count 24 hr % change” value stood at 104%. Moreover, in the experiment with E. coli, the “E. coli 24” value is recorded as 8.03 and the “E. coli 24 hr % change” value is listed as 99%.
`OC[C@H]1O[C@@H](O[C@H]2[C@H](O)[C@@H](O)C(O)O[C@@H]2CO)[C@H](O)[C@@H](O)[C@H]1O` (stereo partly drawn) [lactose]: the bacterial count result was “over 9.5 log 10 CFU/ml” with Lactobacilli strains (0.1% lactose as growth medium, L. fermentum) and “over 9.5 log 10 CFU/ml” with Lactobacilli strains (5% lactose as growth medium, L. acidophilus, L. helveticus).
